# Experimental data from PubChem BioAssay (NCI).
#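 Following 48 hours of exposure in 96-well plates, responses at five concentrations were used to interpolate endpoints linearly. At the TGI there is no net growth.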
# Columns and labels:
# Assay in all cases: NCI tumour cell line growth inhibition, 48 h
# CCRF-CEM leukemia = tested on: CCRF-CEM leukemia
# 786-0 renal = tested on: 786-0 renal
# OVCAR-3 ovarian = tested on: OVCAR-3 ovarian
# HL-60(TB) leukemia = tested on: HL-60(TB) leukemia
# TK-10 renal = tested on: TK-10 renal
# SNB-19 CNS = tested on: SNB-19 CNS
# MOLT-4 leukemia = tested on: MOLT-4 leukemia
# HCT-15 colon = tested on: HCT-15 colon
# SK-OV-3 ovarian = tested on: SK-OV-3 ovarian
# SR leukemia = tested on: SR leukemia
# UACC-257 melanoma = tested on: UACC-257 melanoma
# NCI-H23 lung = tested on: NCI-H23 lung
# K-562 leukemia = tested on: K-562 leukemia
# SF-295 CNS = tested on: SF-295 CNS
# UACC-62 melanoma = tested on: UACC-62 melanoma
# CAKI-1 renal = tested on: CAKI-1 renal
# HOP-62 NSCLC = tested on: HOP-62 NSCLC
# HS 578T breast = tested on: HS 578T breast
# UO-31 renal = tested on: UO-31 renal
# SW-620 colon = tested on: SW-620 colon
# NCI-H226 lung = tested on: NCI-H226 lung
# MDA-MB-231 breast = tested on: MDA-MB-231 breast
# HT29 colon = tested on: HT29 colon
# HCC-2998 colon = tested on: HCC-2998 colon
# SF-268 CNS = tested on: SF-268 CNS
# SNB-75 CNS = tested on: SNB-75 CNS
# HOP-92 NSCLC = tested on: HOP-92 NSCLC
# OVCAR-4 ovarian = tested on: OVCAR-4 ovarian
# PC-3 prostate = tested on: PC-3 prostate
# RXF 393 renal = tested on: RXF 393 renal
# OVCAR-8 ovarian = tested on: OVCAR-8 ovarian
# RPMI-8226 leukemia = tested on: RPMI-8226 leukemia
# A549 NSCLC = tested on: A549 NSCLC
# MDA-MB-435 = tested on: MDA-MB-435
# MCF7 breast = tested on: MCF7 breast
# ACHN renal = tested on: ACHN renal
# OVCAR-5 ovarian = tested on: OVCAR-5 ovarian
# LOX IMVI melanoma = tested on: LOX IMVI melanoma
# COLO 205 colon = tested on: COLO 205 colon
# U251 CNS = tested on: U251 CNS
# HCT-116 colon = tested on: HCT-116 colon
# NCI-H460 lung = tested on: NCI-H460 lung
# KM12 colon = tested on: KM12 colon
# SK-MEL-2 melanoma = tested on: SK-MEL-2 melanoma
# DU-145 prostate = tested on: DU-145 prostate
# EKVX NSCLC = tested on: EKVX NSCLC
# BT-549 breast = tested on: BT-549 breast
# SN12C renal = tested on: SN12C renal
# IGROV1 ovarian = tested on: IGROV1 ovarian
# M14 melanoma = tested on: M14 melanoma
# MDA-N = tested on: MDA-N
# NCI-H522 lung = tested on: NCI-H522 lung
# SK-MEL-5 melanoma = tested on: SK-MEL-5 melanoma
# NCI/ADR-RES ovarian = tested on: NCI/ADR-RES ovarian
# MALME-3M melanoma = tested on: MALME-3M melanoma
# SK-MEL-28 melanoma = tested on: SK-MEL-28 melanoma
# SF-539 CNS = tested on: SF-539 CNS
# T-47D breast = tested on: T-47D breast
# A498 renal = tested on: A498 renal
structure (smiles),measurement,setting,value
COc1c(O)cc(O)c2c(=O)cc(-c3ccccc3)oc12,TGI,CCRF-CEM leukemia,> 100 µM
same,TGI,786-0 renal,> 100 µM
same,TGI,OVCAR-3 ovarian,72.5 µM
same,TGI,HL-60(TB) leukemia,57.3 µM
same,TGI,TK-10 renal,> 100 µM
same,TGI,SNB-19 CNS,> 100 µM
same,TGI,MOLT-4 leukemia,> 100 µM
same,TGI,HCT-15 colon,> 100 µM
same,TGI,SK-OV-3 ovarian,> 100 µM
same,TGI,SR leukemia,> 100 µM
same,TGI,UACC-257 melanoma,> 100 µM
same,TGI,NCI-H23 lung,> 100 µM
same,TGI,K-562 leukemia,> 100 µM
same,TGI,SF-295 CNS,> 100 µM
same,TGI,UACC-62 melanoma,> 100 µM
same,TGI,CAKI-1 renal,> 100 µM
same,TGI,HOP-62 NSCLC,49.8 µM
same,TGI,HS 578T breast,> 100 µM
same,TGI,UO-31 renal,6.04 µM
same,TGI,SW-620 colon,> 100 µM
same,TGI,NCI-H226 lung,> 100 µM
same,TGI,MDA-MB-231 breast,> 100 µM
same,TGI,HT29 colon,> 100 µM
same,TGI,HCC-2998 colon,> 100 µM
same,TGI,SF-268 CNS,> 100 µM
same,TGI,SNB-75 CNS,> 100 µM
same,TGI,HOP-92 NSCLC,> 100 µM
same,TGI,OVCAR-4 ovarian,> 100 µM
same,TGI,PC-3 prostate,> 100 µM
same,TGI,RXF 393 renal,42.7 µM
same,TGI,OVCAR-8 ovarian,> 100 µM
same,TGI,RPMI-8226 leukemia,37.1 µM
same,TGI,A549 NSCLC,> 100 µM
same,TGI,MDA-MB-435,> 100 µM
same,TGI,MCF7 breast,> 100 µM
same,TGI,ACHN renal,> 100 µM
same,TGI,OVCAR-5 ovarian,> 100 µM
same,TGI,LOX IMVI melanoma,68.8 µM
same,TGI,COLO 205 colon,> 100 µM
same,TGI,U251 CNS,> 100 µM
same,TGI,HCT-116 colon,78.4 µM
same,TGI,NCI-H460 lung,> 100 µM
same,TGI,KM12 colon,> 100 µM
same,TGI,SK-MEL-2 melanoma,> 100 µM
same,TGI,DU-145 prostate,79.5 µM
same,TGI,EKVX NSCLC,> 100 µM
same,TGI,BT-549 breast,> 100 µM
same,TGI,SN12C renal,> 100 µM
same,TGI,IGROV1 ovarian,> 100 µM
same,TGI,M14 melanoma,> 100 µM
same,TGI,MDA-N,> 100 µM
same,TGI,NCI-H522 lung,> 100 µM
same,TGI,SK-MEL-5 melanoma,> 100 µM
same,TGI,NCI/ADR-RES ovarian,> 100 µM
same,TGI,MALME-3M melanoma,> 100 µM
same,TGI,SK-MEL-28 melanoma,> 100 µM
same,TGI,SF-539 CNS,> 100 µM
c1cn(C23C4C5C6C4C2C6C53)cn1 (stereo not drawn),TGI,CCRF-CEM leukemia,> 100 µM
same,TGI,786-0 renal,> 100 µM
same,TGI,HL-60(TB) leukemia,> 100 µM
same,TGI,TK-10 renal,> 100 µM
same,TGI,SNB-19 CNS,> 100 µM
same,TGI,T-47D breast,> 100 µM
same,TGI,MOLT-4 leukemia,> 100 µM
same,TGI,HCT-15 colon,> 100 µM
same,TGI,SK-OV-3 ovarian,> 100 µM
same,TGI,SR leukemia,> 100 µM
same,TGI,UACC-257 melanoma,> 100 µM
same,TGI,NCI-H23 lung,> 100 µM
same,TGI,K-562 leukemia,> 100 µM
same,TGI,SF-295 CNS,> 100 µM
same,TGI,HOP-62 NSCLC,> 100 µM
same,TGI,HS 578T breast,> 100 µM
same,TGI,SW-620 colon,> 100 µM
same,TGI,NCI-H226 lung,> 100 µM
same,TGI,MDA-MB-231 breast,> 100 µM
same,TGI,HT29 colon,> 100 µM
same,TGI,HCC-2998 colon,> 100 µM
same,TGI,SF-268 CNS,> 100 µM
same,TGI,SNB-75 CNS,> 100 µM
same,TGI,PC-3 prostate,> 100 µM
same,TGI,OVCAR-8 ovarian,> 100 µM
same,TGI,RPMI-8226 leukemia,> 100 µM
same,TGI,A549 NSCLC,> 100 µM
same,TGI,MDA-MB-435,> 100 µM
same,TGI,MCF7 breast,> 100 µM
same,TGI,ACHN renal,> 100 µM
same,TGI,OVCAR-5 ovarian,> 100 µM
same,TGI,LOX IMVI melanoma,> 100 µM
same,TGI,A498 renal,> 100 µM
same,TGI,COLO 205 colon,> 100 µM
same,TGI,U251 CNS,> 100 µM
same,TGI,HCT-116 colon,> 100 µM
same,TGI,NCI-H460 lung,> 100 µM
same,TGI,KM12 colon,> 100 µM
same,TGI,SK-MEL-2 melanoma,> 100 µM
same,TGI,DU-145 prostate,> 100 µM
same,TGI,EKVX NSCLC,> 100 µM
same,TGI,BT-549 breast,> 100 µM
same,TGI,SN12C renal,> 100 µM
same,TGI,IGROV1 ovarian,> 100 µM
same,TGI,M14 melanoma,> 100 µM
same,TGI,MDA-N,> 100 µM
same,TGI,NCI-H522 lung,> 100 µM
same,TGI,SK-MEL-5 melanoma,> 100 µM
same,TGI,NCI/ADR-RES ovarian,> 100 µM
same,TGI,SK-MEL-28 melanoma,> 100 µM
same,TGI,SF-539 CNS,> 100 µM
